Results published in the METLIN SMRT retention time set (Domingo-Almenara et al. 2019).

Test: gradient 5% acetonitrile 3 min, to 50% in 2 min, to 85% in 15 min, held 3 min, 100 µL/min
Settings: column: Zorbax Extend-C18 2.1 x 50 mm; eluents: water / acetonitrile, 0.1% formic acid
In short: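 Over 3 months, pure standards in mixtures of ~100 molecules were run by HPLC coupled to a quadrupole time-of-flight mass spectrometer in positive and negative ionization mode. The column was a Zorbax Extend-C18 (2.1 × 50 mm, 1.8 μm) at 100 μL/min, eluted with water and acetonitrile each holding 0.1% formic acid, with 40 μL dead and 900 μL dwell volumes. Retention time was determined from adduct peaks chosen by software and checked manually.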

SMILES | RP-LC retention time [s]
CC(C)N1CCN(Cc2ccc(C(=O)N3CCN(C4CCCCC4)CC3)cc2)C(=O)C1=O | 839
CC(C)CCNC(=O)NCCc1nc2cccnc2n1Cc1ccccc1 | 726
C=CCN1C(=O)COc2ccc(-c3csc(NC(=O)CCCC)n3)cc21 | 953
COc1cccc(NC(=O)CCC2CCN(S(=O)(=O)c3ccccc3)CC2)c1 | 936
COc1ccc(-n2nnc3c(SCc4cccc([N+](=O)[O-])c4)ncnc32)cc1 | 1100
Cc1ccc(NC(=O)N2CCC(c3cc(N)on3)CC2)c(Cl)c1 | 736
CC(C)NC(=O)c1cc(N(C)C)nc2ccccc12 | 587
Cc1ccc(Sc2ccc(N3CCCC(C(=O)N4CCN(c5ccccn5)CC4)C3)nn2)cc1 (configuration not stated) | 659
O=C(NCCC1=CCCCC1)C(=O)NCc1ccsc1 | 894
CCOC(=O)c1noc2nc(C)nc(N3CCN(c4ccccc4)CC3)c12 | 643
CCOC(=O)c1c(C)[nH]c(C(=O)N2CCCC(C(=O)NCCN3CCCCC3)C2)c1C (configuration not stated) | 620
CC(C)NC(=O)c1ccc(-c2ccsc2)nc1 | 736
NC(=O)C1=C(N)c2ccccc2C1c1ccccc1 (configuration not stated) | 822
CCOc1ccc(-c2nc(Cc3noc(-c4ccccc4)n3)c(C)o2)cc1 | 1200
CCCC(=O)Nc1nc(-c2ccc3c(c2)NC(=O)C(C)O3)c(C)s1 (configuration not stated) | 812
Cc1ccc(C)c(N2CCN(C(=O)C3CCCN(C(=O)c4[nH]c(C)cc4C)C3)CC2)c1 (configuration not stated) | 1010
CCOC(=O)c1[nH]c(C)c(CCC(=O)N2CCC(C(=O)NCc3cccnc3)CC2)c1C | 597
CCOC(=O)c1noc2ncnc(N3CCc4cc(OC)c(OC)cc4C3C)c12 (configuration not stated) | 1000
Cc1ncsc1C1N(C2CCN(C(=O)c3cnccn3)CC2)C(=O)C12CCCC2 (configuration not stated) | 654
CN1CCCn2nc(C3CCN(C(=O)CC(C)(C)C)CC3)cc2C1=O | 654

SMILES | RP-LC retention time [s]
CC(C)CN1CCN(S(=O)(=O)c2ccc(-c3nnc(C4CCCC4)o3)o2)CC1 | 692
CCCN1CCN(C(=O)C2Cc3cc(S(=O)(=O)N4CCCCC4)ccc3N2C(C)=O)CC1 (configuration not stated) | 630
C/C(=C\c1csc(C)n1)C1C[C@@H]2O[C@]2(C)CCC[C@H](C)[C@H](O)[C@@H](C)C(=O)C(C)(C)[C@@H](O)CC(=O)O1 (some centres not stated) | 901
Cc1c(-c2nnc(C(=O)NCCCN3CCCCCC3)o2)oc2ccccc12 | 674
O=C(c1ccc(Cl)s1)N1CCN(CC(O)c2cccs2)CC1 (configuration not stated) | 572
CCOC(=O)c1cn[nH]c1S(=O)(=O)N1CCN(c2ccccn2)CC1 | 582
O=C(NCC1CCS(=O)(=O)C1)c1cc(-c2cccs2)[nH]n1 (configuration not stated) | 607
O=C(c1ccc(Cl)s1)N1CCCC(CCc2nnc(C3CCOCC3)o2)C1 (configuration not stated) | 790
CCc1ccc(-c2nc3sc(C(=O)NC)c(C)n3c2NCCOC)cc1 | 754
O=C([C@@H]1C[C@H](F)CN1S(=O)(=O)c1cccc(C(F)(F)F)c1)N1CCCCC1 | 878
CCSc1nnc(-c2nn(C)c3c2CN(S(=O)(=O)c2ccc(Cl)cc2)CC3)n1CC | 983
COc1ccc(CN2C=C(C(=O)OCc3c(C)noc3C)C(C)=NS2(=O)=O)cc1 | 934
CCc1nnc(NC(=O)CSc2nnc(Cn3c(=O)sc4ccccc43)n2C)s1 | 658
CC(C)NC(=O)C1CCCN(c2nccn3nc(-c4ccccc4Cl)cc23)C1 (configuration not stated) | 806
O=C1N(c2ccccc2)CC12CCN(S(=O)(=O)Cc1ccccc1)CC2 | 654
Cc1ccc(-c2ccc(N3CCN(c4ccccn4)CC3)nn2)cc1S(=O)(=O)N1CCC(C)CC1 | 743
O=C(O)C1CCc2sc(C(=O)N3CCCCCC3)cc2C1 (configuration not stated) | 746
Cc1oc2c(c1C(=O)NCCc1ccccc1)C1=NC(C)(C)CN1C=N2 | 653
CCc1nc2cc(-c3noc(Cc4ccc(OC)c(OC)c4)n3)ccc2o1 | 956
CCn1nccc1C(=O)N1CC(N(C2CCOCC2)S(C)(=O)=O)C1 | 624

More lines, now with the values ahead:

RP-LC retention time [s] | SMILES
1020 | CN1C(=O)C2CCCCN2c2ccc(C(=O)N3CCN(c4ccc(Cl)cc4)CC3)cc21 (configuration not stated)
1200 | COc1cccc(-n2c(=O)c(C(=O)NCCc3ccccc3)c(O)c3cccnc32)c1
961 | Cc1cc(C(=O)Nc2ccc(C)c(C)c2)n(-c2ccccc2)n1
645 | COc1ccc(CCc2nc3nccc(-c4ccncc4)n3n2)cc1OC
892 | COc1ccc(-n2c(=O)n(C)c(=O)c3cc(C(=O)Nc4ccccc4OC)cnc32)cc1
816 | COCCN1C(=O)c2ccccc2C(C(=O)Nc2ccc3c(c2)OCO3)C12CCCC2 (configuration not stated)
575 | CN1CCN(CCCNc2nnc(-c3nc(-c4ccc(F)cc4)no3)c3ccccc23)CC1
748 | CCN1c2ccccc2C(=O)NC12CCN(C(=O)Nc1ccccc1F)CC2
810 | CCOC(=O)N1CCN(C(=O)CSc2nccc3c(OC)cccc23)CC1
1090 | CCn1c(=O)c2cc(C(=O)Nc3ccc(C(F)(F)F)cc3)nn2c2ccccc21
567 | CCN1CCN(CCCNC(=O)c2ccc(CS(=O)c3ccccc3Cl)o2)CC1 (configuration not stated)
719 | O=C(NCCn1c(=O)n(Cc2ccc(F)cc2)c2cccnc21)c1cnccn1
789 | Cc1ccc(C)c(NC(=O)CN2CCN(C(=O)Nc3ccc(Br)cc3)CC2=O)c1
609 | Nc1nc(N2CCOCC2)ncc1C(=O)NCc1ccccc1
670 | CC1(C(=O)NCc2ccc(F)cc2)Cn2cnc(C(=O)NC3CC3)c2C(=O)N1C1CC1 (configuration not stated)
686 | Cc1c(C(=O)C(=O)Nc2ccc(C(N)=O)cc2)c2ccccc2n1C
693 | COc1cccc(CNC(=O)c2ccc(CN3CCN(C(C)C)C(=O)C3=O)cc2)c1
819 | CCn1nnc2ccc(-c3noc(-c4cccc(NC(C)=O)c4)n3)cc21
884 | CCn1ncn2cc(S(=O)(=O)Nc3ccc(F)c(F)c3)cc2c1=O
1070 | COc1ccc(C(=O)N2CCc3cc(-c4csc(C5CC5)n4)ccc32)cn1
1000 | CC(C)(Oc1ccc(Cl)cc1)C(=O)NCCS(=O)(=O)N1CCc2ccccc2C1
1100 | CCn1c(=O)oc2cc(-c3noc(-c4cc(F)ccc4F)n3)ccc21
774 | CCOC(=O)c1nc(NCc2ccccc2OC)c2ccccc2n1
652 | COc1cc(C(C)=O)ccc1OCC(O)CN1CCN(c2ccccc2F)CC1 (configuration not stated)

RP-LC retention time [s] | SMILES
857 | CC(Oc1cccc(F)c1)C(=O)NCCOc1ccccc1 (configuration not stated)
674 | Cc1ccc(F)cc1NC(=O)Cn1cnc2nc(N3CCC(C(=O)NC4CC4)CC3)sc2c1=O
844 | O=C(CSc1ncnc2ccccc12)N1CCCc2ccccc21
893 | COCCCN1C(=O)CSc2c(c3ccccc3n2C)C1C(=O)NCc1ccccc1OC (configuration not stated)
750 | CCOc1ccc(C(=O)NC(C(=O)Nc2nc3ccccc3[nH]2)C(C)CC)cc1 (configuration not stated)
779 | Cn1nccc1C(=O)NCc1ccc2c(c1)CCN2C(=O)c1ccc(F)cc1
768 | N#Cc1ccc(C(=O)NC2CC(=O)N(Cc3ccccc3)C2)cc1 (configuration not stated)
611 | Cc1nc2ccn(Cc3cccs3)c(=O)c2cc1C(=O)N1CCN(c2ccccn2)CC1
735 | CCN1c2ccccc2C(=O)NC12CCN(C(=O)Nc1ccc(OC)cc1)CC2
940 | CC(C)N1C(=O)c2cccnc2Sc2cc(NC(=O)Cc3cccc(Cl)c3)ccc21
1090 | Cc1ccc(S(=O)(=O)N2CCC(C(=O)N3CCCC3c3nc(-c4ccccc4C)no3)CC2)cc1 (configuration not stated)
624 | CCCn1cc(C(=O)NC2CCN(Cc3ccccc3)CC2)c2cccnc21
868 | Cc1cc(OCC(=O)NCc2ccc(Cl)cc2)nc(N2CCN(c3ccccc3)CC2)n1
1050 | O=C(Nc1ccc(F)c(F)c1)C1CCCN(c2nc3ccsc3c(=O)n2Cc2ccc(F)cc2)C1 (configuration not stated)
815 | Cc1ccc(CCNC(=O)C2CCCN(c3nnc(C)c4c(C)n(-c5ccc(C)cc5)nc34)C2)cc1 (configuration not stated)
872 | Cc1ccccc1C(=O)Nc1ccc2c(c1)Sc1ncccc1C(=O)N2C(C)C
885 | Cc1ccc2c(c1)C(c1ccc(F)cc1)N(C(=O)c1ccc(S(=O)(=O)N(C)C)cc1)CC(=O)N2 (configuration not stated)
858 | CCCN1C(=O)c2c(C(=O)NCc3cccc(Cl)c3)ncn2CC1(C)C(=O)NC1CCCC1 (configuration not stated)
678 | COc1ccccc1-c1nnc(NC(=O)c2c[nH]c3ccccc23)o1
805 | CCn1cc(-c2nc(CC(=O)NCc3cccs3)cs2)c2cccnc21
819 | Cc1ccc(NC(=O)CN2C(=O)NC(c3ccccc3Cl)C3=C2COC3=O)cc1C (configuration not stated)
850 | CCN1C(=O)c2cccnc2Sc2cc(NC(=O)c3c(F)cccc3Cl)ccc21
759 | CCOc1ccc(CCNC(=O)C2CCCN(c3nnc(C)c4c(C)n(-c5ccccc5)nc34)C2)cc1 (configuration not stated)
